Experimental data published in PMC8161026, “Synthesis and Anticancer Activity Evaluation of 5-[2-Chloro-3-(4-nitrophenyl)-2-propenylidene]-4-thiazolidinones” (Molecules, 2021).

Columns and labels:
NCI-H460 [1] = assay: cells; conditions: Homo sapiens, NCI-H460, 48 h; for CC50: read-out: LC50
T-47D = T-47D (Breast Cancer), 48 h, SRB
PC-3 = assay: cells; conditions: Homo sapiens, PC-3, 48 h; for CC50: read-out: LC50
NCI-H226 = assay: NCI DTP 60 cell line screen, SRB
K-562 = conditions: for TGI: K-562 (Leukemia), 48 h, SRB
SK-MEL-5 = assay: NCI DTP 60 cell line screen, SRB; conditions: for GI50 / CC50: Homo sapiens, SK-MEL-5, 48 h; for CC50: read-out: LC50; for TGI: SK-MEL-5 (Melanoma), 48 h, SRB
LOX IMVI [2] = conditions: LOX IMVI (Melanoma), 48 h, SRB
MCF-7 = assay: NCI DTP 60 cell line screen, SRB; conditions: for GI50 / CC50: Homo sapiens, MCF7, 48 h; for CC50: read-out: LC50; for TGI: MCF-7 (Breast Cancer), 48 h, SRB
[3] = system: DLD-1 (human colon cancer); assay: MTT cell viability assay; assay type: cell-based; conditions: DLD-1, MTT, 24 h
Method: (§1) In the second stage of the research, Ciminalum-thiazolidinone hybrids were investigated for antitumor activity on the lines of gastric cancer (AGS), human colon cancer (DLD-1), and breast cancers (MCF-7 and MDA-MB-231). The study was performed in the MTT assay according to the method described previously. The studied cancer line was sensitive to the action of the studied compounds that inhibited its growth in micromolar ranges of GI50. The hit compounds that inhibited the growth of all four cancer lines with the lowest GI50 values were [5-[2-chloro-3-(4-nitrophenyl)prop-2-enylidene]-rhodanines 2c, 2d, 2h, and 2i (Table 4).

AGS (gastric cancer) = assay: MTT cell viability assay; assay type: cell-based; conditions: Homo sapiens, 24 h
Method: as §1

MCF-7 (breast cancer) = assay: MTT cell viability assay; assay type: cell-based; conditions: Homo sapiens, MCF7; MCF-7, MTT, 24 h
Method: as §1

[4] = system: MDA-MB-231 (breast cancer); assay: MTT cell viability assay; assay type: cell-based; conditions: Homo sapiens; MDA-MB-231, MTT, 24 h
Method: as §1

NCI/ADR-Res = assay: NCI DTP 60 cell line screen, SRB; conditions: 48 h; for GI50 / CC50: Homo sapiens, NCI/ADR-RES; for CC50: read-out: LC50; for TGI: NCI/ADR-Res (Breast Cancer), SRB
HOP-62 = assay: cells; conditions: Homo sapiens, HOP-62, 48 h; for CC50: read-out: LC50
OVCAR-5 = assay: NCI DTP 60 cell line screen, SRB
SK-MEL-2 = assay: cells; conditions: Homo sapiens, SK-MEL-2, 48 h
MOLT-4 = conditions: for TGI: MOLT-4 (Leukemia), 48 h, SRB
LOX IMVI [5] = assay: cells; conditions: Homo sapiens, 48 h; for CC50: read-out: LC50
A498 = assay: NCI DTP 60 cell line screen, SRB
A549/ATCC = assay: cells; conditions: Homo sapiens, A549, 48 h; for CC50: read-out: LC50
SF-268 = assay: NCI DTP 60 cell line screen, SRB; conditions: for GI50 / CC50: Homo sapiens, SF-268, 48 h; for CC50: read-out: LC50; for TGI: SF-268 (CNS Cancer), 48 h, SRB
SF-539 = assay: NCI DTP 60 cell line screen, SRB; conditions: for GI50 / CC50: Homo sapiens, SF-539, 48 h; for CC50: read-out: LC50; for TGI: SF-539 (CNS Cancer), 48 h, SRB
NCI-H23 = NCI-H23 (Non-Small Cell Lung Cancer), 48 h, SRB
U251 = assay: cells; conditions: Homo sapiens, U-251, 48 h; for CC50: read-out: LC50
SR = conditions: for TGI: SR (Leukemia), 48 h, SRB
NCI-H460 [6] = conditions: NCI-H460 (Non-Small Cell Lung Cancer), 48 h, SRB
MDA-MB-231/ATCC = assay: NCI DTP 60 cell line screen, SRB; conditions: for GI50 / CC50: Homo sapiens, MDA-MB-231, 48 h; for CC50: read-out: LC50; for TGI: MDA-MB-231/ATCC (Breast Cancer), 48 h, SRB
HOP-92 = assay: NCI DTP 60 cell line screen, SRB
SNB-75 = SNB-75 (CNS Cancer), 48 h, SRB
OVCAR-4 = assay: NCI DTP 60 cell line screen, SRB

O=C1/C(=C/C(Cl)=C/c2ccc([N+](=O)[O-])cc2)SC(=S)N1/N=C\C(Cl)=C\c1ccc([N+](=O)[O-])cc1 [Compound 2c, 5-[(Z,2Z)-2-Chloro-3-(4-nitrophenyl)-2-propenylidene]-3-[(Z,2Z)-2-chloro-3-(4-nitrophenyl)-2-propenylideneamino]-2-thioxo-4-thiazolidinone]
GI50 (NCI-H460 [1]): 15 µM
CC50 (NCI-H460 [1]): 69.5 µM
TGI (T-47D): 65.3 µM
GI50 (PC-3): 8.1 µM
CC50 (PC-3): > 100 µM
GI50 (NCI-H226; Homo sapiens, NCI-H226, 48 h): 12 µM
CC50 (NCI-H226; Homo sapiens, NCI-H226, 48 h, read-out: LC50): 84.2 µM
TGI (NCI-H226; NCI-H226 (Non-Small Cell Lung Cancer), 48 h, SRB): 31.8 µM
TGI (K-562): 25.5 µM
GI50 (SK-MEL-5): 19.4 µM
CC50 (SK-MEL-5): 75.6 µM
TGI (SK-MEL-5): 38.3 µM
TGI (LOX IMVI [2]): 28.8 µM
GI50 (MCF-7): 4.08 µM
CC50 (MCF-7): 83.7 µM
TGI (MCF-7): 19.8 µM
GI50 [3]: 6.34 µM
GI50 (AGS (gastric cancer)): 4.43 µM
GI50 (MCF-7 (breast cancer)): 3.6 µM
GI50 [4]: 1.59 µM
GI50 (NCI/ADR-Res): 6.55 µM
CC50 (NCI/ADR-Res): 61.7 µM
TGI (NCI/ADR-Res): 20.8 µM
GI50 (HOP-62): 17.2 µM
CC50 (HOP-62): 91.9 µM
GI50 (OVCAR-5; Homo sapiens, OVCAR-5, 48 h): 15.1 µM
CC50 (OVCAR-5; Homo sapiens, OVCAR-5, 48 h, read-out: LC50): 86.6 µM
TGI (OVCAR-5; OVCAR-5 (Ovarian Cancer), 48 h, SRB): 36.2 µM
GI50 (SK-MEL-2): 19 µM
CC50 (SK-MEL-2; read-out: LC50): 69.8 µM
TGI (MOLT-4): 8.95 µM
GI50 (LOX IMVI [5]): 13 µM
CC50 (LOX IMVI [5]): 63.8 µM
TGI (A498; A498 (Renal Cancer), 48 h, SRB): 29.6 µM
GI50 (A498; Homo sapiens, A498, 48 h): 13 µM
CC50 (A498; Homo sapiens, A498, 48 h, read-out: LC50): 67.3 µM
GI50 (A549/ATCC): 18.9 µM
CC50 (A549/ATCC): 96.1 µM
GI50 (SF-268): 17 µM
CC50 (SF-268): > 100 µM
TGI (SF-268): 41.3 µM
GI50 (SF-539): 25.9 µM
CC50 (SF-539): > 100 µM
TGI (SF-539): 57.4 µM
TGI (NCI-H23): 31.6 µM
GI50 (U251): 8.03 µM
CC50 (U251): 65.8 µM
TGI (SR): 12.0 µM
TGI (NCI-H460 [6]): 32.3 µM
GI50 (MDA-MB-231/ATCC): 10 µM
CC50 (MDA-MB-231/ATCC): > 100 µM
TGI (MDA-MB-231/ATCC): 35.4 µM

O=C1/C(=C/C(Cl)=C/c2ccc([N+](=O)[O-])cc2)SC(=S)N1c1ccc(O)cc1 [Compound 2f, 5-[(Z,2Z)-2-Chloro-3-(4-nitrophenyl)-2-propenylidene]-3-(4-hydroxyphenyl)-2-thioxo-4-thiazolidinone]
GI50 (NCI-H460 [1]): 0.754 µM
CC50 (NCI-H460 [1]): > 100 µM
TGI (T-47D): 7.71 µM
GI50 (PC-3): 2.29 µM
CC50 (PC-3): > 100 µM
TI (Therapeutic Index) (K-562; GI50 (normal blood lymphocyte)/GI50 (K-562)): >191.94
TGI (K-562): > 100 µM
GI50 (SK-MEL-5): < 0.01 µM
CC50 (SK-MEL-5): 3.41 µM
TGI (SK-MEL-5): < 0.01 µM
TGI (HOP-92; HOP-92 (Non-Small Cell Lung Cancer), 48 h, SRB): 39.4 µM
GI50 (HOP-92; Homo sapiens, HOP-92, 48 h): 8.53 µM
CC50 (HOP-92; Homo sapiens, HOP-92, 48 h, read-out: LC50): > 100 µM
TGI (LOX IMVI [2]): 3.70 µM
GI50 (MCF-7): 0.401 µM
CC50 (MCF-7): > 100 µM
TGI (MCF-7): 28.0 µM
GI50 (NCI/ADR-Res): 2.17 µM
CC50 (NCI/ADR-Res): > 100 µM
TGI (NCI/ADR-Res): 6.13 µM
GI50 (HOP-62): 2.61 µM
CC50 (HOP-62): 11.6 µM
TI (Therapeutic Index) (MOLT-4; GI50 (normal blood lymphocyte)/GI50 (MOLT-4)): >257.07
TGI (MOLT-4): > 100 µM
GI50 (LOX IMVI [5]): 1.17 µM
CC50 (LOX IMVI [5]): > 100 µM
TGI (SNB-75): > 100 µM
GI50 (A549/ATCC): 2.25 µM
CC50 (A549/ATCC): > 100 µM
GI50 (OVCAR-4; Homo sapiens, OVCAR-4, 48 h): 2.63 µM
CC50 (OVCAR-4; Homo sapiens, OVCAR-4, 48 h, read-out: LC50): > 100 µM
TGI (OVCAR-4; OVCAR-4 (Ovarian Cancer), 48 h, SRB): > 100 µM
GI50 (SF-268): 2.55 µM
CC50 (SF-268): > 100 µM
TGI (SF-268): 34.5 µM
GI50 (SF-539): 0.0252 µM
CC50 (SF-539): 28.1 µM
TGI (SF-539): 0.242 µM
TGI (NCI-H23): 3.11 µM
GI50 (U251): 0.368 µM
CC50 (U251): 38.9 µM
TI (Therapeutic Index) (SR; GI50 (normal blood lymphocyte)/GI50 (SR)): >10,000
TGI (SR): 0.138 µM
TGI (NCI-H460 [6]): > 100 µM
GI50 (MDA-MB-231/ATCC): 2.18 µM
CC50 (MDA-MB-231/ATCC): 92.1 µM
TGI (MDA-MB-231/ATCC): 12.2 µM
